The text below walks through data of ChEMBL document CHEMBL1129394, “Studies on selectin blocker. 3. Investigation of the carbohydrate ligand sialyl Lewis X recognition site of P-selectin” (J Med Chem, 1996).

For this assay, the target named is T1, P-selectin (Homo sapiens, UniProt P16109).
T1 sequence (P16109 whole entry): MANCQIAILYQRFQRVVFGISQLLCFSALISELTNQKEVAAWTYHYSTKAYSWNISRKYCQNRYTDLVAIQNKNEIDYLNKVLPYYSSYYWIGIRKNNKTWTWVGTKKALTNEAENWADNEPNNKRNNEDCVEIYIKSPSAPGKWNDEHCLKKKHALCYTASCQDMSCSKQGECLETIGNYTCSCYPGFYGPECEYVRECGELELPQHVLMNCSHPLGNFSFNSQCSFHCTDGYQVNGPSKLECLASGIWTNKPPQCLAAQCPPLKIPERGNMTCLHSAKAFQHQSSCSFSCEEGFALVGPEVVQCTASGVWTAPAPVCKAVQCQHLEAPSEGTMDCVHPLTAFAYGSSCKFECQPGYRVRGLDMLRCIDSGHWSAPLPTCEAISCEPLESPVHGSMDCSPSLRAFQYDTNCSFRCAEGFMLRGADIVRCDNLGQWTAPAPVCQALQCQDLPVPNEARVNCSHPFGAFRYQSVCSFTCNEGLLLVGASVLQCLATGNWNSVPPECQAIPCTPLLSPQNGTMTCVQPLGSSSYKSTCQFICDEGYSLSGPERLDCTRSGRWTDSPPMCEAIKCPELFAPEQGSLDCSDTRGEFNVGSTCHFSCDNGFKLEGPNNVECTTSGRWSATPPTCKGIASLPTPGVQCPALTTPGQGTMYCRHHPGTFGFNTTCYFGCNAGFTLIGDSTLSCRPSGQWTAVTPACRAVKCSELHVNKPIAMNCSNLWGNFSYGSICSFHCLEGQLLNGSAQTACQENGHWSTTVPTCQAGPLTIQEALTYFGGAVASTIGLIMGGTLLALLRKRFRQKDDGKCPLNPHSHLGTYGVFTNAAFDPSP
Nature of the assay: Blocking activity on Selectin P ligand binding.

What is called IC50 is the concentration that gives 50% inhibition. Low values mean higher potency, high ones lower potency. In the case of `CC(=O)N[C@H]1[C@H]([C@H](O)[C@H](O)CO)O[C@@](O[C@H]2[C@@H](O)[C@@H](CO)O[C@@H](O[C@@H]([C@H](O[C@@H]3O[C@@H](C)[C@@H](O)[C@@H](O)[C@@H]3O)[C@H](C=O)NC(C)=O)[C@H](O)CO)[C@@H]2O)(C(=O)O)C[C@@H]1O` [SIALYL LEWIS X], the IC50 was > 1000 µM.
